From patent US12263153B2, “Pharmaceutical composition, methods for treating and uses thereof” (Boehringer Ingelheim International GmbH, priority 2016, dated 2025)

Assays:
[1] = patients with type 2 diabetes mellitus and high cardiovascular risk; cited from earlier work
[2] = human, in vivo; cited from earlier work
[3] = blood pressure, heart rate and sympathetic activation under empagliflozin treatment; assay type: in vivo; conditions: treatment with empagliflozin
Text: It may be assumed that altered glucose and sodium gradients within the kidney may generate a sympathoinhibitory afferent renal nerve signal. The lack of sympathetic activation may contribute to a beneficial cardiovascular and renal profile of empagliflozin (cardiorenal axis). Based on clinical and non-clinical studies including mechanistic considerations, such as the effect of empagliflozin on human autonomic cardiovascular regulation, the use of empagliflozin in the treatment, prevention or slowing the progression of certain diseases and conditions or reducing the risk thereof, in particular chronic kidney disease and cardiovascular death in certain patients, is described hereinbefore and hereinafter.

Structure (SMILES): OC[C@H]1O[C@@H](c2ccc(Cl)c(Cc3ccc(O[C@H]4CCOC4)cc3)c2)[C@H](O)[C@@H](O)[C@@H]1O [empagliflozin, 1-chloro-4-(β-D-glucopyranos-1-yl)-2-[4-((S)-tetrahydrofuran-3-yloxy)-benzyl]-benzene]
- risk of cardiovascular death [1]: reduced the risk
- risk of overall mortality [1]: reduced the risk
- arterial stiffness [2]: reduced arterial stiffness
- direct vascular effects [2]: direct vascular effects
- diuretic effect [2]: shows a diuretic effect
- heart rate [3]: without clinically relevant changes
